Publication PMC6458995, “MAP4K4 Inhibition Promotes Survival of Human Stem Cell-Derived Cardiomyocytes and Reduces Infarct Size In Vivo” (Cell Stem Cell, 2019)

Experiments:
Assay in all cases: Dundee kinase panel
Type in all cases: biochemical
Settings in all cases: for remaining activity at 1 µM: read-out: residual activity
BRK = molecular target: T1, BRK (Homo sapiens, UniProt Q13882)
T1 construct: lines 1-140) and Reaction Biology
Protocol: (§1) Compounds were screened at 1 μM. For key hits, pIC50 values were then determined by HTRF as above. […] Stability in mouse and human liver microsomes was determined by Cyprotex.

EPH-B3 = molecular target: T2, EPH-B3 (Homo sapiens, UniProt P54753)
T2 construct: lines 1-140) and Reaction Biology
T2 sequence (P54753 34-998): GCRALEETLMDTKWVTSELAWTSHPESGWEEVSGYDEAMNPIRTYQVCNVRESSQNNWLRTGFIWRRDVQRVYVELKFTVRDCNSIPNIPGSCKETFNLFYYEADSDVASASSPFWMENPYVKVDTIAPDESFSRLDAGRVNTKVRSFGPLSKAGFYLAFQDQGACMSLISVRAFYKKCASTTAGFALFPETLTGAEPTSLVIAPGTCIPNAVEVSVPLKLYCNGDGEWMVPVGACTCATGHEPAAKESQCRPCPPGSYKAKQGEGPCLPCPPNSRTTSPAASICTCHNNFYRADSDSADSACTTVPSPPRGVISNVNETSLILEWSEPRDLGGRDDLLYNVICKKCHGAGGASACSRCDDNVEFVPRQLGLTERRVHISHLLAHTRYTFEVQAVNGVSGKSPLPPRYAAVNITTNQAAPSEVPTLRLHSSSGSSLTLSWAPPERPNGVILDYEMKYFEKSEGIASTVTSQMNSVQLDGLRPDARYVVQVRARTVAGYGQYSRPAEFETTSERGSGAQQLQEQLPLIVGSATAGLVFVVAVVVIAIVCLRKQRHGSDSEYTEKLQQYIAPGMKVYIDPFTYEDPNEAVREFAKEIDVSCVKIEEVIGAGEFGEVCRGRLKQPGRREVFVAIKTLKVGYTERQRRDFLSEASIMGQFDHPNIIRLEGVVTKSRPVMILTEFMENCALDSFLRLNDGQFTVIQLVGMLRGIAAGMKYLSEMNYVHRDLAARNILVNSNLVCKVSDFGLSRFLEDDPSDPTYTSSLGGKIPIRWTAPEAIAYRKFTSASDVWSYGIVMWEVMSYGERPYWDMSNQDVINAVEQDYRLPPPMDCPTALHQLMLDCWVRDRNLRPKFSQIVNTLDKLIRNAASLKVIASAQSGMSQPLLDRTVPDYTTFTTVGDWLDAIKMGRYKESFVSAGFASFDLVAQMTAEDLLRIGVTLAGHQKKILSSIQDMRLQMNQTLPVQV
Protocol: as §1

GSK3b = molecular target: T3, GSK3b (Homo sapiens, UniProt P49841)
T3 construct: lines 1-140) and Reaction Biology
Protocol: as §1

PRAK = molecular target: T4, PRAK (Homo sapiens, UniProt Q8IW41)
T4 construct: lines 1-140) and Reaction Biology
T4 sequence (Q8IW41 1-473): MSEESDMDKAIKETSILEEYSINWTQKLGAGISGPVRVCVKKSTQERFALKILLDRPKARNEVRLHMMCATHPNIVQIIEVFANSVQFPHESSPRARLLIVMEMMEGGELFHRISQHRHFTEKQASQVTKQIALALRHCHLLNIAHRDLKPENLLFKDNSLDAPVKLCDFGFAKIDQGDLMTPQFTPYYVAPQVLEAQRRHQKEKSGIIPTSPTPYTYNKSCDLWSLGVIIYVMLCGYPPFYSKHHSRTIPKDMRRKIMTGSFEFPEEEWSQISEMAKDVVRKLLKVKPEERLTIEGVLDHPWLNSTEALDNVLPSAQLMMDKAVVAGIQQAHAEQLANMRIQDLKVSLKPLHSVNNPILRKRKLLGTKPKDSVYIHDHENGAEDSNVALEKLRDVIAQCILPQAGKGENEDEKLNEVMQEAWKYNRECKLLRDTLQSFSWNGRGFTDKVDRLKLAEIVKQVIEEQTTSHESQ
Protocol: as §1

ROCK 2 = molecular target: T5, ROCK 2 (Homo sapiens, UniProt O75116)
T5 construct: lines 1-140) and Reaction Biology
Protocol: as §1

TAO1 = molecular target: T6, TAO1 (Homo sapiens, UniProt Q7L7X3)
T6 construct: lines 1-140) and Reaction Biology
T6 sequence (Q7L7X3 1-1001): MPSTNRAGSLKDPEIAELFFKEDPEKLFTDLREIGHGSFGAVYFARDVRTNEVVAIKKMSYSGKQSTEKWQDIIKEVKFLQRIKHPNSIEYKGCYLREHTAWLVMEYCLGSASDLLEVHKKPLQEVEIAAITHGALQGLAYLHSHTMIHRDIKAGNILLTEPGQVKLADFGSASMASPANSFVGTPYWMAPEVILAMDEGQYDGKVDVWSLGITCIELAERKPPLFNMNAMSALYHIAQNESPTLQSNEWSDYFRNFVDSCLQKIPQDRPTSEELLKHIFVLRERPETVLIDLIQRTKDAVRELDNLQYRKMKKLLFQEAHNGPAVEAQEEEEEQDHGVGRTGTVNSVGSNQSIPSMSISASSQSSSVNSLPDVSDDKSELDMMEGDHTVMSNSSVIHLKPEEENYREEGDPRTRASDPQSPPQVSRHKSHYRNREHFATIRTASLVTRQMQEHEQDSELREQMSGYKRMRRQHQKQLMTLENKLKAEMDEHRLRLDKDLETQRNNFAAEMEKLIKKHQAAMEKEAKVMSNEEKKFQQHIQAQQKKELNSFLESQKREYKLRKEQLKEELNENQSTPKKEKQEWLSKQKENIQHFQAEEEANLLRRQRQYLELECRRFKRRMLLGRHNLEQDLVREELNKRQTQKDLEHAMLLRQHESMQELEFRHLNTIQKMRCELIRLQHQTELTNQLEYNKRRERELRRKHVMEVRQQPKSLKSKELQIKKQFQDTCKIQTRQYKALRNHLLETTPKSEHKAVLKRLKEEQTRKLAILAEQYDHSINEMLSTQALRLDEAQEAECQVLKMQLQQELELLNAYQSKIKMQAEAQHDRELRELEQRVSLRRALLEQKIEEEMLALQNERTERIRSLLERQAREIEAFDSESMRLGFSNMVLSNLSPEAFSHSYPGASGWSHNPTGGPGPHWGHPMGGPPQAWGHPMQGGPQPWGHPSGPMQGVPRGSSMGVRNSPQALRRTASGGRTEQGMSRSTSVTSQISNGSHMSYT
Protocol: as §1

WNK1 = molecular target: T7, WNK1 (Homo sapiens, UniProt Q9H4A3)
T7 construct: lines 1-140) and Reaction Biology
Protocol: as §1

T1 sequence (Q13882 whole entry): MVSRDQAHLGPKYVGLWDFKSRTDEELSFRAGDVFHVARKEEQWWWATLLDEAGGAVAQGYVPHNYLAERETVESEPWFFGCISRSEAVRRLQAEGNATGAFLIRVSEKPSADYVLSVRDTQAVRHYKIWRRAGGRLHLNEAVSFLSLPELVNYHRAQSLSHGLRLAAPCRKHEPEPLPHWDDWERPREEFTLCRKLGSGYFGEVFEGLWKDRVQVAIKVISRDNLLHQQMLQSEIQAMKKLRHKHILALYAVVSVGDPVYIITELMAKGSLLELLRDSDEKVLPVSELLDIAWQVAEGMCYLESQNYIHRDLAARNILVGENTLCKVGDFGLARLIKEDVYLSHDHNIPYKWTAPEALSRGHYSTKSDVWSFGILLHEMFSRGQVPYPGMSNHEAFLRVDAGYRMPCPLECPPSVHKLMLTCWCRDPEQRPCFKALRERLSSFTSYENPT
T7 sequence (Q9H4A3 whole entry): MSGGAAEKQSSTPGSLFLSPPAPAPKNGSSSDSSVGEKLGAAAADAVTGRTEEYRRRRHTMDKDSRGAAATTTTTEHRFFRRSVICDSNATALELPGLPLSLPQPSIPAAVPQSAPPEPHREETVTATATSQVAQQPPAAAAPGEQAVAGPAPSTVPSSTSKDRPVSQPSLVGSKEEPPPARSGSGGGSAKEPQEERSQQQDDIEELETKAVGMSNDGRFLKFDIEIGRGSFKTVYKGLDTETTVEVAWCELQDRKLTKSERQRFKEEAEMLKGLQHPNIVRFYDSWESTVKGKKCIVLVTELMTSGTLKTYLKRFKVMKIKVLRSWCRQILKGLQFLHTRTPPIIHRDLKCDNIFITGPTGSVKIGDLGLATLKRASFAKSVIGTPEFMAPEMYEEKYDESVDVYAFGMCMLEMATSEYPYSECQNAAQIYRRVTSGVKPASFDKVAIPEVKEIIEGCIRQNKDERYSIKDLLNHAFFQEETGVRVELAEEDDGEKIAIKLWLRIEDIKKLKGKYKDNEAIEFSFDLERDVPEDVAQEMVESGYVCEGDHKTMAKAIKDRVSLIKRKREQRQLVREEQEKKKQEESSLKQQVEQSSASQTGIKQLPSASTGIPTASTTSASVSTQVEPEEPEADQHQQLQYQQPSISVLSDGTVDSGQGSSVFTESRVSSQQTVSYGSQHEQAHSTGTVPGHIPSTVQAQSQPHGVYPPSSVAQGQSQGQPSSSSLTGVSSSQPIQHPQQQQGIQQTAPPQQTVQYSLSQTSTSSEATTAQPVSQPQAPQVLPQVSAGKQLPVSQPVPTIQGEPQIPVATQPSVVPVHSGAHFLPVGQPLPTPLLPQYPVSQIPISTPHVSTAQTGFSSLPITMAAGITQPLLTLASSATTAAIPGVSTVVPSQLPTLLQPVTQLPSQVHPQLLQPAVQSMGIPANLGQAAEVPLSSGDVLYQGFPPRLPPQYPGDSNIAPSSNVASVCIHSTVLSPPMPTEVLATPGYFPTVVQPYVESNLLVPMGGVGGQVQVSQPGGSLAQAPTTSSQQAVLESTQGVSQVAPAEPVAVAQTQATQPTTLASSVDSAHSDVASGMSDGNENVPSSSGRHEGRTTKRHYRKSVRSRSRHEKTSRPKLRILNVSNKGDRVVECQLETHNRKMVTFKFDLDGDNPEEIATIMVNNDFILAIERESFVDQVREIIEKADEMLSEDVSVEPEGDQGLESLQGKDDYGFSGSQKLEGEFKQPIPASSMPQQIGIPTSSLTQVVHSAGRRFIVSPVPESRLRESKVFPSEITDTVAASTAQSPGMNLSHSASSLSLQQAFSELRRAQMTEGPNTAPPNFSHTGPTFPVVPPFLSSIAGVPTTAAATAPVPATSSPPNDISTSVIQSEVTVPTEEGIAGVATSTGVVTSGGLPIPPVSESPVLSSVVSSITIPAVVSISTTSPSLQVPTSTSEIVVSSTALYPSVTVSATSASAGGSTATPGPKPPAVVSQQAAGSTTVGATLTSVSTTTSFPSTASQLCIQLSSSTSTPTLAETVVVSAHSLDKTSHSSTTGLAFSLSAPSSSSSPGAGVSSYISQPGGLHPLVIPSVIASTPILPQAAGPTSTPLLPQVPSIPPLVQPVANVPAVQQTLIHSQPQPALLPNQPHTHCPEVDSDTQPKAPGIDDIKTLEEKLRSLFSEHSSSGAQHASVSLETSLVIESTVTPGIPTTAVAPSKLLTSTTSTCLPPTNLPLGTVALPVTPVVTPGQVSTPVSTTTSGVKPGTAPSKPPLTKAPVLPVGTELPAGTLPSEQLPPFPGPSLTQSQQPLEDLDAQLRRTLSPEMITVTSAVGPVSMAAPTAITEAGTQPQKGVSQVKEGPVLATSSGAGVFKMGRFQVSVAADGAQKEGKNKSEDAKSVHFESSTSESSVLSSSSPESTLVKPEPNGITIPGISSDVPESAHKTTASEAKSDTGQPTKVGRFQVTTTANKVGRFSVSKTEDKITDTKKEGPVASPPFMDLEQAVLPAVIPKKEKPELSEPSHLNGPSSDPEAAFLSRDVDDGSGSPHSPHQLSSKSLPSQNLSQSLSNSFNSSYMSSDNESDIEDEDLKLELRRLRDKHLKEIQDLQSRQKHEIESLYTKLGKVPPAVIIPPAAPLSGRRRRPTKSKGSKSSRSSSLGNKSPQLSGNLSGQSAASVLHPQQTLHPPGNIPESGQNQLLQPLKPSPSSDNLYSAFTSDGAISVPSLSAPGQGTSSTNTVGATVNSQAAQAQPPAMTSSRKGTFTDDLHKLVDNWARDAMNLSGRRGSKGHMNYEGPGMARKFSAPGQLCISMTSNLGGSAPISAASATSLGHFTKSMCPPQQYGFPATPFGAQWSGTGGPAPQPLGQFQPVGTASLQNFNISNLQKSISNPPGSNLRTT
T5 sequence (O75116 whole entry): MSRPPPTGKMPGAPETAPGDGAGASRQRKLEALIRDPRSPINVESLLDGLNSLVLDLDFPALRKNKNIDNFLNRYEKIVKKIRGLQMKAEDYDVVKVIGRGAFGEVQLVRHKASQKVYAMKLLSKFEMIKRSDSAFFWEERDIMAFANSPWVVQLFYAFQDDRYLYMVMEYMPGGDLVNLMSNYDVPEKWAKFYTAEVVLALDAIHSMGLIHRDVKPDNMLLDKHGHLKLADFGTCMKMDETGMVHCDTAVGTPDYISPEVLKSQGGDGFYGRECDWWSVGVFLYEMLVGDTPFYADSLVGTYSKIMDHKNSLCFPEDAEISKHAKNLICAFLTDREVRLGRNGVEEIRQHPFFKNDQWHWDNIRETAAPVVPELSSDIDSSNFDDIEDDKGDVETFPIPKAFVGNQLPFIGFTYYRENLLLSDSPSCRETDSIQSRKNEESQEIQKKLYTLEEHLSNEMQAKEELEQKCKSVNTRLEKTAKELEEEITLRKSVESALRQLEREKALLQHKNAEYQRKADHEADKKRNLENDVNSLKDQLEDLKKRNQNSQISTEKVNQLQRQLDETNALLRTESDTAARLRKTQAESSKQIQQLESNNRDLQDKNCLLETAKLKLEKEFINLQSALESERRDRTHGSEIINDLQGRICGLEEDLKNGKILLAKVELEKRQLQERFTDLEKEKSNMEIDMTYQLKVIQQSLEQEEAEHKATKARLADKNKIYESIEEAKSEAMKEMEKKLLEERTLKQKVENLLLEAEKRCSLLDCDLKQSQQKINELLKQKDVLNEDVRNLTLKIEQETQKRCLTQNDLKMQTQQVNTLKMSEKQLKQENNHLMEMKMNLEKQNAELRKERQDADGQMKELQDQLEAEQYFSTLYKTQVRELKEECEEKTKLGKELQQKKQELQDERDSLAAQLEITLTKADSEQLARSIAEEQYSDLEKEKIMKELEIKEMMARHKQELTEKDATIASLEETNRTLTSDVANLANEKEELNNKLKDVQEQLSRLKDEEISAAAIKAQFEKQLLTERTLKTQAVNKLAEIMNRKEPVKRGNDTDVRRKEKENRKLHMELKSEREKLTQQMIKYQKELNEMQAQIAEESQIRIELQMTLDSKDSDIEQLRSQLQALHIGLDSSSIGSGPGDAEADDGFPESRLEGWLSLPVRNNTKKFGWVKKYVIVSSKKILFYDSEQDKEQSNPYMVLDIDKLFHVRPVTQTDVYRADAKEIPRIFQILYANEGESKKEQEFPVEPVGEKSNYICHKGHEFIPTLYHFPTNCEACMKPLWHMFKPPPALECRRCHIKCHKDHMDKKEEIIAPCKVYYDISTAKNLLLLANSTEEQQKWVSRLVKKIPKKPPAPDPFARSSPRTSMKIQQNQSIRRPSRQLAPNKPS
T3 sequence (P49841 whole entry): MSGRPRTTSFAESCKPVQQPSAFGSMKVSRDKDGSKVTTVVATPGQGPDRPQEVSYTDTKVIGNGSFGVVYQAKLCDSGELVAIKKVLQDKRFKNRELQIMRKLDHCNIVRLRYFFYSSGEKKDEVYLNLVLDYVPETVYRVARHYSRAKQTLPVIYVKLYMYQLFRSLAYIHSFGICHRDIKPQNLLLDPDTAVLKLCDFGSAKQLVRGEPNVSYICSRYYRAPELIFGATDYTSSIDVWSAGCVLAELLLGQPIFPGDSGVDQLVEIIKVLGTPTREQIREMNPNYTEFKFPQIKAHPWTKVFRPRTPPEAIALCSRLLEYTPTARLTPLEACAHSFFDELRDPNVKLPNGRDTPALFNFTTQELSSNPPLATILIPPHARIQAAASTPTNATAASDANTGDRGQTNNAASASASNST

| SMILES | remaining activity at 1 µM (BRK) | remaining activity at 1 µM (EPH-B3) | remaining activity at 1 µM (GSK3b) | remaining activity at 1 µM (PRAK) | remaining activity at 1 µM (ROCK 2) | remaining activity at 1 µM (TAO1) | remaining activity at 1 µM (WNK1) | residual activity (BRK; 1 μM) | residual activity (EPH-B3; 1 μM) | residual activity (GSK3b; 1 μM) | residual activity (PRAK; 1 μM) | residual activity (ROCK 2; 1 μM) | residual activity (TAO1; 1 μM) | residual activity (WNK1; 1 μM) |
| --- | --- | --- | --- | --- | --- | --- | --- | --- | --- | --- | --- | --- | --- | --- |
| COCCOc1ccc(-c2cn(-c3ccccc3)c3nc[nH]c(=O)c23)cc1 [DMX-5804, 5-[4-(2-methoxy-ethoxy)-phenyl]-7-phenyl-3,7-dihydro-pyrrolo[2,3-d]pyrimidin-4-one] | 88% | 96% | 102% | 92% | 104% | 120% | 106% | – | – | – | – | – | – | – |
| Oc1ncnc2c1c(-c1ccccc1)cn2-c1ccccc1 [F1386-0303, 5,7-diphenyl-7H-pyrrolo[2,3-d]pyrimidin-4-ol] | 108% | 104% | 127% | 113% | 132% | 98% | 109% | – | – | – | – | – | – | – |
| Nc1ncc(C(=O)NC2CN(C(=O)C3CC3)C2)c2ccc(-c3cccc(F)c3)nc12 [GNE-495] | – | – | – | – | – | – | – | 94% | 87% | 69% | 91% | 82% | 75% | 102% |
| O=C1Nc2ccc(I)cc2/C1=C/c1cc(Br)c(O)c(Br)c1 [GW5074] | 77% | 94% | 42% | 93% | 56% | 96% | 94% | – | – | – | – | – | – | – |
| O=C1Cc2c([nH]c3ccc(Br)cc23)-c2ccccc2N1 [Kenpaullone] | 97% | – | 6% | 95% | 62% | 93% | 92% | – | – | – | – | – | – | – |
